In patent US20100254942A1, “HEPATITIS C ANTIVIRAL COMPOSITIONS AND METHODS” (BIOTRON LIMITED, priority 2007, published 2010):
Several values for one entry are separate records, joined by “and”; a condition that tells them apart may be missing. Identical values can stand only once. Like-named read-outs stand apart in the source and are kept apart here.

Tests used:
[1] = target: T1, HCV p7 ion channel protein (Hepatitis C virus genotype 1a, UniProt P27958); assay: Bacterial bioassay: growth of E. coli expressing HCV p7; type: cell-based; set-up: scale not given here; details: cumulative averaged scores; result above zero indicates potential anti-viral activity
T1 construct: codons were optimised for expression of the p7 protein in E. coli; expressed in transfected cells; host or cells: E. coli carrying plasmid pPLp7 (pPL451 backbone, temperature-inducible)
Text: The bacterial bioassay method used in the present example to test the anti-viral activity of the compounds against different viral targets was described in detail in PCT/2004/000866, incorporated in its entirety herein by reference. This assay is used in conjunction with the GBV-B and BVDV assays described below, to ensure that all active compounds are identified, some of which are active in one or the other of the assays, while some compounds may be active in both assays.
Briefly, the bacterial bio-assay for screening potential anti-HCV compounds is based on the HCV p7 ion channel protein. p7 is a small membrane protein encoded by HCV, which has a functional activity supporting viral growth and/or replication.
The p7-encoding synthetic cDNA fragment cDp7.coli, in which codons were optimised for expression of the p7 protein in E. coli, was cloned into the expression plasmid pPL451, creating the vector pPLp7, in which p7 expression is temperature inducible, as described in detail in PCT/2004/000866. Inhibition of the growth of E. coli cells expressing p7 at 37° C. was observed as an indicator of p7 ion channel function dissipating the normal Na+gradient maintained by the bacterial cells. Halos of growth around a particular compound application site indicate that the compound has inhibited expression of the p7 ion channel activity that prevents growth in the absence of the compound.
The positive controls were used in this assay to ensure that the assay was working rather than for comparison of relative activities of the compounds.

[2] = tested on: bovine viral diarrhea virus (BVDV) strain NADL; assay: BVDV CPE-inhibition assay in MDBK cells; type: cell-based
Procedure: The antiviral evaluation of selected BIT compounds against BVDV was outsourced to Southern Research Institute (SRI), Fredrick Md. USA. A simple cytoprotection format is used in which the antiviral efficacy of the compounds is assessed by their ability to reduce the cytopathic effect of BVDV infection in Madin-Darby bovine kidney cells (Buckwold et al., 2003)
(§1) A virus-induced cytopathogenic effects (CPE)-inhibition assay procedure was employed to evaluate compounds for antiviral activity against bovine viral diarrhea virus (BVDV) strain NADL, in Madin-Darby bovine kidney (MDBK) cells passaged in T-75 flasks (1, 2). Antiviral assays were designed to test six half-log concentrations of each compound in triplicate against the challenge virus. Cell controls (CC) containing medium alone, virus-infected cell controls (VC) containing medium and virus, drug cytotoxicity controls containing medium and each drug concentration, reagent controls containing culture medium only (no cells), and drug colorimetric controls containing drug and medium (no cells) are run simultaneously with the test samples. Human interferon-α 2b was used as a positive control compound. On the day preceding the assay, the cells were trypsinized, pelleted, counted and resuspended at 1×10^4/well in tissue culture medium in 96-well flat bottom tissue culture plates in a volume of 100 μl per well. One day following plating of cells, the wells were washed and the medium was replaced with complete medium (2% serum) containing various concentrations of test compound diluted in medium in a half-log series. A pre-titered aliquot of virus was removed from the freezer (−80° C.) just before each experiment. The virus was diluted into tissue culture medium such that the amount of virus added to each well would give complete cell killing at 6-7 days post-infection. The plates were incubated at 37° C. in a humidified atmosphere containing 5% CO2 until maximum CPE is observed in the untreated virus control cultures (˜day 7) Inhibition of CPE by the compound was determined using Cell Titer 96 (Promega). A colorimetric method for determining the number of viable cells was used. A computer program was utilized to calculate the percent of CPE reduction of the virus-infected wells and the percentage cell viability of uninfected drug control wells. […] A therapeutic (selectivity) index (TI50) for each active compound was determined by dividing the TC50 by the IC50.
(§2) Drug cytotoxicity was measured separately in uninfected cells. Eleven BIT compounds were tested in the first experiment in which the compounds were added to the cells just prior to infection and were maintained throughout the entire experiment. Two of them, BIT225 and BIT314 returned sub-micromolar IC50 values (see Table 2 below).

[3] = tested on: Madin-Darby bovine kidney (MDBK) cells; assay: Drug cytotoxicity in uninfected MDBK cells; type: cell-based; details: for TC50: uninfected MDBK cells
Text: as §1, §2

GBV-B p13 ion channel = target: T2, GBV-B p13 ion channel (Hepatitis GB virus B, UniProt Q69422); details: synthetic peptide of two C-terminal transmembrane helices of p13; Premkumar et al., 2006; cited from earlier work
T2 construct: a synthetic peptide corresponding to the two C-terminal transmembrane helices of p13 (which share the greatest homology to p7); host or cells: chemically synthesised peptide

[4] = BVDV in MDBK cells, compound added just prior to infection and maintained, N/A = not achieved, read-out: IC50
[5] = Bovine viral diarrhea virus isolates and strains, MDBK, Table 2a, read-out: BVDV IC50
[6] = Bovine viral diarrhea virus isolates and strains, MDBK, nucleoside analog tested individually against BVDV, read-out: EC50

T1 sequence (P27958 747-809): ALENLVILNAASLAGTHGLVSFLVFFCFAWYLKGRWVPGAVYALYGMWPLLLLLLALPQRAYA
T2 sequence (Q69422 670-732): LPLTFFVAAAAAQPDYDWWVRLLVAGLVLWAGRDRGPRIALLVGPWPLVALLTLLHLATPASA

Row | Compound | Average Bacterial Assay Score HCV p7 [1] | IC50 [2, 5] [nM] | other results
1 | N=C(N)NC(=O)c1ccc2c(-c3ccsc3)cccc2c1 [BIT224, 5-thiophen-3-yl-2-naphthoylguanidine] | 1.10 | – | –
2 | N=C(N)NC(=O)/C=C/c1cccc2c1OCO2 [BIT217, 2,3-methylenedioxycinnamoyl guanidine] | 1.0 | – | –
3 | CC(=O)O.Cn1cc(-c2ccc3cc(C(=O)NC(=N)N)ccc3c2)cn1 [BIT314, (6-(1-methylpryazol-4-yl)-2-napthoyl)guanidinium acetate] | 4.03 | 390 | IC50 [2, 4]: 210 nM; EC50 ([2]; Bovine viral diarrhea virus isolates and strains, MDBK, drug alone, average of experiments, read-out: average EC50): 0.3 µM; EC50 ([2]; Bovine viral diarrhea virus isolates and strains, MDBK, in the presence of 5 IU/ml IFNα plus 1.25 μg/ml ribavirin, read-out: EC50): 0.183 µM; EC50 ([2]; Bovine viral diarrhea virus isolates and strains, MDBK, in the presence of 40 IU/ml IFNα, read-out: EC50): ~0.06 µM; EC50 ([2]; drug alone, average of experiments, read-out: average EC50): 0.38 µM; EC50 ([2]; drug tested individually against BVDV, read-out: EC50): 0.21 µM and 0.39 µM and 0.54 µM; IC50 values (in words) ([2]; first experiment, Table 2): sub-micromolar; TC50 [3]: 11.6 µM
4 | CS(=O)(=O)Nc1ccc(-c2cccc3cc(C(=O)NC(=N)N)ccc23)cc1 [BIT319, (5-(4-((methylsulphonyl)amino)phenyl)-2-napthoyl)guanidine] | 0.10 | > 20000 | –
5 | N=C(N)NC(=O)c1ccc2c(-c3ccccc3Cl)cccc2c1 [BIT316, (5-(2-chlorophenyl)-2-napthoyl)guanidine] | 0.37 | > 20000 | –
6 | N=C(N)NC(=O)C=Cc1cccc(Br)c1 [BIT067, (3-Bromocinnamoyl)guanidine] | 2.00 | – | –
7 | COc1ccc(-c2cccc3cc(C(=O)NC(=N)N)ccc23)c(OC)n1 [BIT315, (5-(2,6-dimethoxypryridin-3-yl)-2-napthoyl)guanidine] | 0.20 | > 20000 | –
8 | COc1cc2ccccc2cc1C(=O)NC(=N)N [BIT302, (3-methoxy-2-napthoyl)guanidine] | 0.76 | 7210 | –
9 | N=C(N)NC(=O)c1ccc2c(C3CC3)cccc2c1 [BIT312, (5-cyclopropyl-2-napthoyl)guanidine] | 1.00 | 8630 | –
10 | CC(C)Cn1cc(-c2cccc3cc(C(=O)NC(=N)N)ccc23)cn1 [BIT310, (5-(1-isobutyl-1H-pyrazol-4-yl)-2-napthoyl)guanidine] | 0.36 | > 20000 | –
11 | COc1ccc2cc(C(=O)NC(=N)N)ccc2c1Br [BIT223, 5-bromo-6-methoxy-2-napthoylguanidine] | 0.5 | – | IC50 [2, 4]: 4380 nM; TC50 [3]: >30.0 µM
12 | N=C(N)NC(=O)/C=C/c1cccc2c1CCC2 [BIT222, 3(indan-4-yl)-propenoylguanidine] | 2.0 | – | –
13 | N=C(N)NC(=O)c1ccc2c(Cl)cccc2c1 [BIT313, (5-chloro-2-napthoyl)guanidine] | 1.30 | 9640 | –
14 | N=C(N)NC(=O)c1ccc2c(-c3cccs3)cccc2c1 [BIT308, (5-(thien-2-yl)-2-napthoyl)guanidine] | 0.55 | 8730 | –
15 | N=C(N)NC(=O)C=Cc1cc(Br)ccc1F [BIT124, 5-bromo-2-fluorocinnamoylguanidine] | 2.70 | – | TC59 [3]: 5.21 µM
16 | CC(=O)Nc1cccc(-c2cccc3cc(C(=O)NC(=N)N)ccc23)c1 [BIT318, (5-(3-(acetylamino)phenyl)-2-napthoyl)guanidine] | 0.73 | > 20000 | –

Row | Compound | Average Bacterial Assay Score HCV p7 [1] | IC50 [2, 5] [nM] | other results
17 | N=C(N)NC(=O)/C=C/c1cccc(C(=O)c2ccccc2)c1 [BIT216, (3-benzoyl)cinnamoylguanidine] | 1.3 | – | –
18 | N=C(N)NC(=O)c1ccc2c(-c3ccoc3)cccc2c1 [BIT311, (5-(3-furyl)-2-napthoyl)guanidine] | 0.81 | 2960 | –
19 | CC(=O)Nc1ccc(-c2cccc3cc(C(=O)NC(=N)N)ccc23)cc1 [BIT317, (5-(4-(acetylamino)phenyl)-2-napthoyl)guanidine] | 0.06 | 6020 | –
20 | IFN-α | – | – | inhibition ([2]; 5 IU/ml IFNα alone): ~8%; IC50 ([2]; BVDV in MDBK cells, positive control): 20.6 IU/mL; EC50 ([2]; drug tested individually against BVDV): 21.7 IU/ml; TC59 [3]: >500 IU/mL
21 | NC(N)=NC(=O)c1nc(Cl)c(N2CCCCCC2)nc1N [HMA] | – | – | effect on p13 ion channel (GBV-B p13 ion channel): does not inhibit
22 | N=C(N)NC(=O)C=Cc1ccc(Cl)c(Cl)c1 [BIT300, 3,4-dichlorocinnamoyl guanidine] | 1.12 | – | TC59 [3]: 3.69 µM
23 | Cc1ccc2cc(C(=O)NC(=N)N)ccc2c1 [BIT306, (6-methyl-2-napthoyl)guanidine] | 0.07 | 14500 | –
24 | Cc1cccc2cc(C(=O)NC(=N)N)ccc12 [BIT218, 5-methyl-2-napthoylguanidine] | 1.7 | – | –
25 | N=C(N)NC(=O)c1ccc2cc(-c3ccsc3)ccc2c1 [BIT305, (6-(3-thienyl)-2-napthoyl)guanidine] | 0.08 | > 20000 | –
26 | C[C@@]1(O)[C@H](O)[C@@H](CO)O[C@H]1n1cnc2c(N)ncnc21 [2′-C-methyladenosine, reference compound] | – | – | EC50 [2, 6]: 2.16 µM
27 | COc1cc(C(=O)NC(=N)N)c(OC)c2ccccc12 [BIT304, (1,4-dimethoxy--2-napthoyl)guanidine] | 0.60 | > 20000 | –
28 | NC12CC3CC(CC(C3)C1)C2 [amantadine] | – | – | effect on p13 ion channel (GBV-B p13 ion channel): blocked
29 | N=C(N)NC(=O)c1ccc2c(-c3ccccc3)cccc2c1 [BIT307, (5-phenyl-2-napthoyl)guanidine] | 0.46 | 1990 | –
30 | C[C@@]1(O)[C@H](O)[C@@H](CO)O[C@H]1n1ccc(N)nc1=O [2′-C-methylcytidine, reference compound] | – | – | EC50 [2, 6]: 2.75 µM
31 | N=C(N)NC(=O)c1ccc2c(Br)cccc2c1 [BIT303, (5-bromo-2-napthoyl)guanidine] | 0.62 | 13600 | –
32 | COc1c(C(=O)NC(=N)N)ccc2ccccc12 [BIT301, (1-methoxy-2-napthoyl)guanidine] | 0.25 | > 20000 | –
